Laboratory results: PubChem BioAssay AID330 (DTP/NCI, 2004)
Several values for one entry are separate records, joined by “and”; a condition that tells them apart may be missing. Identical values can stand only once. Toxic doses and inconclusive results are not listed. How the source made its calls: active means survival T/C of 150% or more; inactive means T/C below 125% in these data.

Test system: P388 leukemia ip, CD2F1 mice, survival T/C
Experiment: NCI In Vivo Anticancer Drug Screen. Data for tumor model P388 Leukemia (intraperitoneal) in CD2F1 (CDF1) mice
Details: endpoint: median survival time, higher = longer survival
Outline: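 Mice carrying the transplanted tumor received test compound or vehicle. Survival was recorded in each group, and the value is the treated-group measurement divided by that of the vehicle-treated control group.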

[1] = dose: 25.0 mg/kg/injection, schedule: Q01DX009 (ip), vehicle: saline
[2] = dose: 50.0 mg/kg/injection, schedule: Q01DX009 (ip), vehicle: saline
[3] = dose: 100.0 mg/kg/injection, schedule: Q01DX009 (ip), vehicle: saline
[4] = dose: 50.0 mg/kg/injection, schedule: Q01DX005 (ip), vehicle: saline with Tween-80
[5] = dose: 100.0 mg/kg/injection, schedule: Q01DX005 (ip), vehicle: saline with Tween-80
[6] = dose: 12.5 mg/kg/injection, schedule: Q01DX005 (ip), vehicle: saline with Tween-80
[7] = dose: 60.0 mg/kg/injection, schedule: Q01DX005 (ip), vehicle: saline with Tween-80
[8] = dose: 120.0 mg/kg/injection, schedule: Q01DX005 (ip), vehicle: saline with Tween-80
[9] = dose: 240.0 mg/kg/injection, schedule: Q01DX005 (ip), vehicle: saline with Tween-80
[10] = dose: 50.0 mg/kg/injection, schedule: Q01DX009 (ip), vehicle: Klucel (hydroxypropylcellulose) (HPC)
[11] = dose: 100.0 mg/kg/injection, schedule: Q01DX009 (ip), vehicle: Klucel (hydroxypropylcellulose) (HPC)
[12] = dose: 50.0 mg/kg/injection, schedule: Q01DX009 (ip), vehicle: saline with Tween-80

Measured: T/C

CN(C)CCC(OC(=O)c1ccccc1Cl)c1ccccc1 (stereo not given)
inactive: [1] 99 % of control and 100 % of control and 101 % of control | [2] 101 % of control and 107 % of control and 117 % of control | [3] 108 % of control and 116 % of control

COc1ccc2[nH]c(=O)c(Br)c(C)c2c1
inactive: [4] 101 % of control | [5] 95 % of control | dose: 200.0 mg/kg/injection, schedule: Q01DX005 (ip), vehicle: saline with Tween-80 100 % of control

CC(=O)OCc1ccc(O)c(C=O)c1
inactive: [6] 118 % of control | [4] 113 % of control

Cc1nc(N)nc(Nc2ccccc2)n1
inactive: [7] 103 % of control | [8] 99 % of control | [9] 101 % of control

Cc1cc(NS(=O)(=O)c2ccc(N)cc2)no1.[Ag]
inactive: dose: 12.5 mg/kg/injection, schedule: Q01DX009 (ip), vehicle: Klucel (hydroxypropylcellulose) (HPC) 89 % of control | dose: 25.0 mg/kg/injection, schedule: Q01DX009 (ip), vehicle: Klucel (hydroxypropylcellulose) (HPC) 101 % of control | [10] 106 % of control

CNC(=S)c1cccc(-c2ccccn2)n1
inactive: dose: 12.5 mg/kg/injection, schedule: Q04DX003 (ip), vehicle: Klucel (hydroxypropylcellulose) (HPC) 104 % of control | dose: 25.0 mg/kg/injection, schedule: Q04DX003 (ip), vehicle: Klucel (hydroxypropylcellulose) (HPC) 113 % of control | dose: 50.0 mg/kg/injection, schedule: Q04DX003 (ip), vehicle: Klucel (hydroxypropylcellulose) (HPC) 108 % of control and 91 % of control

CCSc1ccc2c(cc1=O)C(N)CCc1cc(OC)c(OC)c(OC)c1-2 (stereo not given)
inactive: [10] 96 % of control | [11] 121 % of control

CCN(CC)Cc1cc(N=Nc2ccc3c(c2)c2ccccc2n3CC)c2ccccc2c1O
inactive: [12] 86 % of control | dose: 100.0 mg/kg/injection, schedule: Q01DX009 (ip), vehicle: saline with Tween-80 93 % of control | dose: 200.0 mg/kg/injection, schedule: Q01DX009 (ip), vehicle: saline with Tween-80 93 % of control

O=C1NCCN1c1cccc([N+](=O)[O-])c1
inactive: dose: 12.5 mg/kg/injection, schedule: Q01DX009 (ip), vehicle: saline sonified 90 % of control | dose: 25.0 mg/kg/injection, schedule: Q01DX009 (ip), vehicle: saline sonified 100 % of control | dose: 50.0 mg/kg/injection, schedule: Q01DX009 (ip), vehicle: saline sonified 90 % of control

OCCN(CO)CCO
inactive: [7] 117 % of control | [8] 123 % of control | [9] 115 % of control

CCCCNP1(NCCCC)=NP(NCCCC)(NCCCC)=NP(NCCCC)(NCCCC)=NP(NCCCC)(NCCCC)=N1
inactive: [6] 106 % of control | dose: 25.0 mg/kg/injection, schedule: Q01DX005 (ip), vehicle: saline with Tween-80 116 % of control | [5] 88 % of control

[N-]=[N+]=Nc1ccccc1C(=O)Nc1ccccc1C(N)=O
inactive: dose: 100.0 mg/kg/injection, schedule: Q04DX002 (ip), vehicle: Klucel (hydroxypropylcellulose) (HPC) 101 % of control | dose: 200.0 mg/kg/injection, schedule: Q04DX002 (ip), vehicle: Klucel (hydroxypropylcellulose) (HPC) 104 % of control | dose: 400.0 mg/kg/injection, schedule: Q04DX002 (ip), vehicle: Klucel (hydroxypropylcellulose) (HPC) 104 % of control

CCOC(=O)CCC(NC(=O)c1ccc(I)cc1)C(=O)OCC (stereo not given)
inactive: [10] 100 % of control | [11] 93 % of control | dose: 200.0 mg/kg/injection, schedule: Q01DX009 (ip), vehicle: Klucel (hydroxypropylcellulose) (HPC) 102 % of control

CN(C)c1ccc(CN(Cc2ccccc2)CC(O)c2ccccc2)cc1 (stereo not given)
inactive: dose: 6.25 mg/kg/injection, schedule: Q01DX009 (ip), vehicle: saline with Tween-80 97 % of control | dose: 12.5 mg/kg/injection, schedule: Q01DX009 (ip), vehicle: saline with Tween-80 100 % of control | dose: 25.0 mg/kg/injection, schedule: Q01DX009 (ip), vehicle: saline with Tween-80 100 % of control | [12] 102 % of control

c1cc[n+](CCC2OCCO2)cc1
inactive: dose: 12.5 mg/kg/injection, schedule: Q01DX009 (ip), vehicle: saline 109 % of control | [1] 109 % of control | [2] 100 % of control | [3] 108 % of control
